# Laboratory results as given in patent US9284318B2, “Protein kinase inhibitors” (Pharmascience, Inc., priority 2011, dated 2016).
# How the values were obtained:
# MV4-11 cells = assay: Human MV4-11 biphenotypic B myelomonocytic leukemia cell survival assay; assay type: cell-based; details: cell survival at 72h, Cell Titer-Glo
# Procedure: Human MV4-11 Biphenotypic B Myelomonocytic Leukemia Cell Survival Assay
# Biphenotypic B myelomonocytic leukemia MV4-11 cells (ATCC CRL-9591) were cultured in suspension at 37° C., 5% CO2 in complete medium (RPMI supplemented with 10% FBS, 1% penicillin/streptomycin). One day prior to treatment, cells per seeded in 96-well plates at 8000 cells/well in complete medium. The following day, triplicate wells were treated with compound curves of 100, 1000 or 10,000 nM starting concentration according to compound potency. Cell survival was measured 72h later by Cell Titer-Glo Luminescent Assay (Promega). Luminescence was read using a Tecan Infinite F200 microplate reader. EC50 values (50% survival in the presence of compound as compared to vehicle treated controls) were calculated from non-linear fit dose response compound curves using CambridgeSoft BioAssay software (Perkin Elmer).
# [1] = biological target: T1, recombinant human colony stimulating factor 1 receptor (FMS) (Homo sapiens, UniProt P07333); assay: Biochemical cFMS (CSF1R) fluorescence polarization kinase assay; details: 10 μM ATP, 100 μM substrate, 60 minutes
# T1 construct: containing the catalytic domain (amino acids 538-910); His tag; purchased Invitrogen; host or cells: insect cells
# T1 sequence (P07333 538-910): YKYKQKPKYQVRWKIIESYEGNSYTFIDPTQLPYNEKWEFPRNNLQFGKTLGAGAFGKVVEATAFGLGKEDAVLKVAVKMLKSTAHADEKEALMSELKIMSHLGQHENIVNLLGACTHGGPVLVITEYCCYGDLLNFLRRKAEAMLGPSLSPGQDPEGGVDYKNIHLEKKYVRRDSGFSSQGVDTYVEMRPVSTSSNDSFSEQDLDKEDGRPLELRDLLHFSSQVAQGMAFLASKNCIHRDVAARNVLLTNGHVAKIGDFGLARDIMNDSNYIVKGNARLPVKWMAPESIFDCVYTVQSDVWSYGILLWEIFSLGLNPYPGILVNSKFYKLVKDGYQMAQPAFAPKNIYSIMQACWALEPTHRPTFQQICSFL
# Procedure: Biochemical cFMS (CSF1R) Assay:
# Fluorescence polarization-based kinase biochemical assays were performed in 384 well-plate format using histidine tagged recombinant human colony stimulating factor 1 receptor (FMS) supplied from Invitrogen™ (containing the catalytic domain (amino acids 538-910), expressed in insect cells and activated in vitro via auto phosphorylation) and a modified protocol of the KinEASE™ FP Fluorescein Green Assay supplied from Millipore™.
# Kinase reactions were performed in 384 well plate format at room temperature for 60 minutes in presence of 100 μM substrate, 10 μM ATP and variable test article concentrations. The reaction was stopped with EDTA/KinEASE™ detection reagents and the polarization measured on a Tecan 500 instrument. From the dose-response curve obtained, the IC50 was estimated using Graph pad Prisms® using a non linear fit curve.
# [2] = test system: M-NFS-60 M-CSF-dependent myeloid leukemia cells; assay: Murine M-CSF-dependent M-NFS-60 cell survival assay; assay type: cell-based; details: Mus musculus; cell survival at 72 hours, 20 ng/ml M-CSF, Cell Titer-Glo
# Procedure: Cellular Assays: Murine M-CSF-Dependent M-NFS-60 Cell Survival Assay
# Murine M-NFS-60 M-CSF-dependent myeloid leukemia cells were purchased from ATCC (CRL-1838). Cells were routinely cultured at 37° C., 5% CO2 in complete medium (RPMI supplemented with 10% FBS, 1% penicillin/streptomycin, 50 uM beta mercaptoethanol) containing 30 ng/ml recombinant murine M-CSF (Peprotech 315-02). For survival assays, cells were transferred to depleted medium (complete medium depleted of M-CSF) for 24 hours prior to initiation of each experiment. M-CSF-starved cells were harvested and re-suspended in complete medium containing 20 ng/ml M-CSF. Cells were seeded at 25,000 cells/well in 96-well plates and incubated for 1 hour at 37° C., 5% CO2. Cells were treated with 1 uM or 10 uM compound curves in triplicate and cell survival was measured 72 hours later by Cell Titer-Glo Luminescent Assay (Promega). Luminescence was read using a Tecan Infinite F200 microplate reader. EC50 values (50% survival in the presence of compound as compared to vehicle treated controls) were calculated from non-linear fit dose response compound curves using GraphPad Prism Software.
Compound,EC50 (MV4-11 cells) [nM],IC50 [1] [nM],EC50 [2] [nM]
Nc1ncnc2c3c(n(-c4ccc(NC(=O)OCc5ccccc5)cc4)c12)COC3 [Compound 31],100 to 1000,,
Nc1ccc(-n2c3c(c4ncnc(N)c42)COC3)cc1 [Compound 32],100 to 1000,,
Nc1ncnc2c3c(n(-c4ccc(NC(=O)Nc5ccc(F)cc5)cc4)c12)COC3 [Compound 33],100 to 1000,100 to 1000,100 to 1000
COc1ccc(-n2c3c(c4ncnc(N)c42)CCC3)cc1OC [Compound 34],> 1000,,
COc1cc(NC(=O)Nc2ccc(-n3c4c(c5ncnc(N)c53)CCC4)cc2)ccc1F [Compound 35],< 100,< 100,100 to 1000
Nc1ncnc2c3c(n(-c4ccc(NC(=O)Nc5ccccc5Cl)cc4)c12)CCC3 [Compound 36],> 1000,100 to 1000,100 to 1000
CC(=O)Nc1ccc(-n2c3c(c4ncnc(N)c42)CCC3)cc1 [Compound 37],> 1000,,
C[C@H](NC(=O)Nc1ccc(-n2c3c(c4ncnc(N)c42)CCC3)cc1)c1ccccc1 [Compound 38],> 1000,,100 to 1000
Nc1ncnc2c3c(n(-c4ccc(NC(=O)Nc5ccccc5F)cc4)c12)CCC3 [Compound 39],100 to 1000,100 to 1000,< 100
Nc1ncnc2c3c(n(CCCc4ccccc4)c12)CCC3 [Compound 40],100 to 1000,,
Nc1ncnc2c3c(n(-c4ccc(NC(=O)NC5CCCCC5)cc4)c12)CCC3 [Compound 41],< 100,100 to 1000,100 to 1000
Nc1ncnc2c3c(n(-c4ccc(NC(=O)NCCc5ccc(F)cc5)cc4)c12)CCC3 [Compound 42],< 100,,100 to 1000
Cc1ccc(F)c(NC(=O)Nc2ccc(-n3c4c(c5ncnc(N)c53)CCC4)cc2)c1 [Compound 43],< 100,< 100,< 100
C[C@@H](NC(=O)Nc1ccc(-n2c3c(c4ncnc(N)c42)CCC3)cc1)c1ccccc1 [Compound 45],< 100,100 to 1000,100 to 1000
Nc1ncnc2c3c(n(-c4ccc(NC(=O)NCCc5ccccc5)cc4)c12)CCC3 [Compound 46],< 100,100 to 1000,100 to 1000
Cc1ccc(F)c(NC(=O)Nc2ccc(-n3c4c(c5ncnc(N)c53)COC4)cc2)c1 [Compound 47],< 100,100 to 1000,< 100
Nc1ncnc2c3c(n(-c4ccc(NC(=O)Nc5cccc(C(F)(F)F)c5)cc4)c12)COC3 [Compound 48],< 100,< 100,100 to 1000
Nc1ncnc2c3c(n(-c4ccccc4)c12)CCC3 [Compound 49],100 to 1000,,
Nc1ncnc2c3c(n(-c4ccc(NC(=O)Nc5ccc(F)cc5F)cc4)c12)CCC3 [Compound 50],< 100,100 to 1000,< 100
Nc1ncnc2c3c(n(CCCCc4ccccc4)c12)CCC3 [Compound 51],> 1000,,
Nc1ncnc2c3c(n(-c4ccc(NC(=O)NCc5ccc(F)cc5)cc4)c12)CCC3 [Compound 52],< 100,,100 to 1000
COc1ccc(NC(=O)Nc2ccc(-n3c4c(c5ncnc(N)c53)CCC4)cc2)c(F)c1 [Compound 54],< 100,< 100,< 100
COc1ccc(NC(=O)Nc2ccc(-n3c4c(c5ncnc(N)c53)CCC4)cc2)cc1C(F)(F)F [Compound 55],< 100,100 to 1000,100 to 1000
COc1cc(NC(=O)Nc2ccc(-n3c4c(c5ncnc(N)c53)CCC4)cc2)cc(C(F)(F)F)c1 [Compound 70],< 100,,
CC(C)(C)c1cc(NC(=O)Nc2ccc(-n3c4c(c5ncnc(N)c53)CCC4)cc2)no1 [Compound 74],,< 100,< 100
